According to the NIST ThermoML archive (doi:10.1021/je100715x):

Key:
[1] = xn = mol fraction of the nth substance listed; settings: 101 kPa, Liquid; for viscosity: Capillary tube (Ostwald / Ubbelohde) method; for mass density: Vibrating tube method
[2] = refractive index (Na D-line) (dimensionless); xn = mol fraction of the nth substance listed; settings: 101 kPa, Liquid, Standard Abbe refractometry

CCOC(=O)C(=O)OCC [diethyl ethanedioate] + O=C1CCCCC1
Settings | mass density, 303.15 K [kg/m3] | mass density, 308.15 K [kg/m3] | mass density, 313.15 K [kg/m3] | refractive index, 303.15 K | refractive index, 308.15 K | refractive index, 313.15 K | viscosity, 303.15 K [mPa·s] | viscosity, 308.15 K [mPa·s] | viscosity, 313.15 K [mPa·s]
[1], x1 = 0.0784 | 950.2 | 945.1 | 940.1 | – | – | – | 1.777 | 1.595 | 1.466
[1], x1 = 0.1495 | 961 | 955.8 | 950.6 | – | – | – | 1.737 | 1.556 | 1.416
[1], x1 = 0.2501 | 975.4 | 970.3 | 964.9 | – | – | – | 1.682 | 1.5 | 1.36
[1], x1 = 0.3443 | 988.4 | 983.1 | 977.7 | – | – | – | 1.637 | 1.461 | 1.325
[1], x1 = 0.4324 | 1000 | 994.7 | 989.2 | – | – | – | 1.609 | 1.435 | 1.304
[1], x1 = 0.5507 | 1015.1 | 1009.6 | 1004 | – | – | – | 1.584 | 1.415 | 1.285
[1], x1 = 0.6755 | 1030.3 | 1024.7 | 1019 | – | – | – | 1.575 | 1.404 | 1.276
[1], x1 = 0.7601 | 1040.2 | 1034.5 | 1028.7 | – | – | – | 1.581 | 1.407 | 1.284
[1], x1 = 0.8756 | 1053.1 | 1047.4 | 1041.4 | – | – | – | 1.606 | 1.437 | 1.329
[1], x1 = 0.9502 | 1061 | 1055.3 | 1049.3 | – | – | – | 1.62 | 1.464 | 1.351
[2], x1 = 0.0784 | – | – | – | 1.4429 | 1.4406 | 1.4388 | – | – | –
[2], x1 = 0.1495 | – | – | – | 1.4399 | 1.4376 | 1.4359 | – | – | –
[2], x1 = 0.2501 | – | – | – | 1.4359 | 1.434 | 1.4321 | – | – | –
[2], x1 = 0.3443 | – | – | – | 1.4323 | 1.4307 | 1.4287 | – | – | –
[2], x1 = 0.4324 | – | – | – | 1.4287 | 1.4273 | 1.4252 | – | – | –
[2], x1 = 0.5507 | – | – | – | 1.4239 | 1.4223 | 1.4204 | – | – | –
[2], x1 = 0.6755 | – | – | – | 1.4186 | 1.4168 | 1.4152 | – | – | –
[2], x1 = 0.7601 | – | – | – | 1.4154 | 1.4133 | 1.4116 | – | – | –
[2], x1 = 0.8756 | – | – | – | 1.4108 | 1.4088 | 1.4071 | – | – | –
[2], x1 = 0.9502 | – | – | – | 1.4081 | 1.4059 | 1.4043 | – | – | –
